Experimental data as given in patent publication US20110039721A1, “METHOD FOR PREDICTION ABOUT CARCINOGENICITY OF SUBSTANCE IN RODENT” (Chemicals Evaluation and Research Institute, priority 2007, published 2011).

How the values were obtained:
rodent = conditions: classification of the substance (C+/C−); cited from earlier work
[1] = classification of the substance (M+/M−); cited from earlier work
liver = conditions: classification of the substance (Cr+/Cr−); cited from earlier work
[2] = test system: mRNA expressed from the genes (A) to (D) in rat liver; test: Behavior of genes (mRNA expression level, oligo-DNA microarray) in rat liver after 28-day oral administration; type: in vivo; conditions: mRNA vs vehicle control group; for Behavior of gene caused by administration of chemical substance, Gene No. 4846 / Behavior of gene caused by administration of chemical substance, Gene No. 2026 / Behavior of gene caused by administration of chemical substance, Gene No. 4218 / Behavior of gene caused by administration of chemical substance, Gene No. 6182 / Behavior of gene caused by administration of chemical substance, Gene No. 5600: gene group (A); for Behavior of gene caused by administration of chemical substance, Gene No. 4846: Unigene No. Rn.144554; for Behavior of gene caused by administration of chemical substance, Gene No. 2026 / Behavior of gene caused by administration of chemical substance, Gene No. 4218: Unigene No. Rn.167075; for Behavior of gene caused by administration of chemical substance, Gene No. 6182: Unigene No. Rn.5834; for Behavior of gene caused by administration of chemical substance, Gene No. 5600: Unigene No. Rn.9836; for Behavior of gene caused by administration of chemical substance, Gene No. 1494 / Behavior of gene caused by administration of chemical substance, Gene No. 2045 / Behavior of gene caused by administration of chemical substance, Gene No. 2203: gene group (B); for Behavior of gene caused by administration of chemical substance, Gene No. 1494: Unigene No. Rn.1430; for Behavior of gene caused by administration of chemical substance, Gene No. 2045: Unigene No. Rn.19329; for Behavior of gene caused by administration of chemical substance, Gene No. 2203: Unigene No. Rn.21240; for Behavior of gene caused by administration of chemical substance, Gene No. 533 / Behavior of gene caused by administration of chemical substance, Gene No. 725 / Behavior of gene caused by administration of chemical substance, Gene No. 1163 / Behavior of gene caused by administration of chemical substance, Gene No. 4973 / Behavior of gene caused by administration of chemical substance, Gene No. 4095 / Behavior of gene caused by administration of chemical substance, Gene No. 1334 / Behavior of gene caused by administration of chemical substance, Gene No. 6620 / Behavior of gene caused by administration of chemical substance, Gene No. 6303 / Behavior of gene caused by administration of chemical substance, Gene No. 5878 / Behavior of gene caused by administration of chemical substance, Gene No. 1131 / Behavior of gene caused by administration of chemical substance, Gene No. 1562 / Behavior of gene caused by administration of chemical substance, Gene No. 1741 / Behavior of gene caused by administration of chemical substance, Gene No. 893 / Behavior of gene caused by administration of chemical substance, Gene No. 6026 / Behavior of gene caused by administration of chemical substance, Gene No. 154 / Behavior of gene caused by administration of chemical substance, Gene No. 1993 / Behavior of gene caused by administration of chemical substance, Gene No. 813 / Behavior of gene caused by administration of chemical substance, Gene No. 2494 / Behavior of gene caused by administration of chemical substance, Gene No. 2546 / Behavior of gene caused by administration of chemical substance, Gene No. 3776 / Behavior of gene caused by administration of chemical substance, Gene No. 3929 / Behavior of gene caused by administration of chemical substance, Gene No. 1119 / Behavior of gene caused by administration of chemical substance, Gene No. 6742 / Behavior of gene caused by administration of chemical substance, Gene No. 5634: gene group (C); for Behavior of gene caused by administration of chemical substance, Gene No. 533: Unigene No. Rn.106184; for Behavior of gene caused by administration of chemical substance, Gene No. 725: Unigene No. Rn.108075; for Behavior of gene caused by administration of chemical substance, Gene No. 1163: Unigene No. Rn.11766; for Behavior of gene caused by administration of chemical substance, Gene No. 4973: Unigene No. Rn.118529; for Behavior of gene caused by administration of chemical substance, Gene No. 4095: Unigene No. Rn.119024; for Behavior of gene caused by administration of chemical substance, Gene No. 1334 / Behavior of gene caused by administration of chemical substance, Gene No. 6620: Unigene No. Rn.120914; for Behavior of gene caused by administration of chemical substance, Gene No. 6303: Unigene No. Rn.123063; for Behavior of gene caused by administration of chemical substance, Gene No. 5878: Unigene No. Rn.143213; for Behavior of gene caused by administration of chemical substance, Gene No. 1131: Unigene No. Rn.144946; for Behavior of gene caused by administration of chemical substance, Gene No. 1562: Unigene No. Rn.14744; for Behavior of gene caused by administration of chemical substance, Gene No. 1741: Unigene No. Rn.1647; for Behavior of gene caused by administration of chemical substance, Gene No. 893: Unigene No. Rn.164817; for Behavior of gene caused by administration of chemical substance, Gene No. 6026: Unigene No. Rn.167685; for Behavior of gene caused by administration of chemical substance, Gene No. 154: Unigene No. Rn.185941; for Behavior of gene caused by administration of chemical substance, Gene No. 1993: Unigene No. Rn.18728; for Behavior of gene caused by administration of chemical substance, Gene No. 813: Unigene No. Rn.201760; for Behavior of gene caused by administration of chemical substance, Gene No. 2494: Unigene No. Rn.23969; for Behavior of gene caused by administration of chemical substance, Gene No. 2546: Unigene No. Rn.24561; for Behavior of gene caused by administration of chemical substance, Gene No. 3776: Unigene No. Rn.43232; for Behavior of gene caused by administration of chemical substance, Gene No. 3929: Unigene No. Rn.4620; for Behavior of gene caused by administration of chemical substance, Gene No. 1119: Unigene No. Rn.9757; for Behavior of gene caused by administration of chemical substance, Gene No. 6742: Unigene No. Rn.9779; for Behavior of gene caused by administration of chemical substance, Gene No. 5634: Unigene No. Rn.9862; for Behavior of gene caused by administration of chemical substance, Gene No. 5726: gene group (D), Unigene No. Rn.9939
Outline: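 Male F344 SPF rats, 5 weeks old, four per group, received carcinogens, non-carcinogens or solvent vehicle by oral gavage once daily for 28 days. Liver total RNA was then extracted. Changes of ≥1.5-fold or ≤1/1.5 versus vehicle control, in a consistent direction across carcinogens, counted as significant.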

CCN(N=O)C(N)=O [TS050, N-Ethyl-N-nitrosourea]
+: Behavior of gene caused by administration of chemical substance, Gene No. 6182 [2] | Behavior of gene caused by administration of chemical substance, Gene No. 6303 [2] | Behavior of gene caused by administration of chemical substance, Gene No. 5726 [2]
−: Behavior of gene caused by administration of chemical substance, Gene No. 4846 [2] | Behavior of gene caused by administration of chemical substance, Gene No. 2026 [2] | Behavior of gene caused by administration of chemical substance, Gene No. 4218 [2] | Behavior of gene caused by administration of chemical substance, Gene No. 5600 [2] | Behavior of gene caused by administration of chemical substance, Gene No. 1494 [2] | Behavior of gene caused by administration of chemical substance, Gene No. 2045 [2] | Behavior of gene caused by administration of chemical substance, Gene No. 2203 [2] | Behavior of gene caused by administration of chemical substance, Gene No. 533 [2] | Behavior of gene caused by administration of chemical substance, Gene No. 725 [2] | Behavior of gene caused by administration of chemical substance, Gene No. 1163 [2] | Behavior of gene caused by administration of chemical substance, Gene No. 4973 [2] | Behavior of gene caused by administration of chemical substance, Gene No. 4095 [2] | Behavior of gene caused by administration of chemical substance, Gene No. 1334 [2] | Behavior of gene caused by administration of chemical substance, Gene No. 6620 [2] | Behavior of gene caused by administration of chemical substance, Gene No. 5878 [2] | Behavior of gene caused by administration of chemical substance, Gene No. 1131 [2] | Behavior of gene caused by administration of chemical substance, Gene No. 1562 [2] | Behavior of gene caused by administration of chemical substance, Gene No. 1741 [2] | Behavior of gene caused by administration of chemical substance, Gene No. 893 [2] | Behavior of gene caused by administration of chemical substance, Gene No. 6026 [2] | Behavior of gene caused by administration of chemical substance, Gene No. 154 [2] | Behavior of gene caused by administration of chemical substance, Gene No. 1993 [2] | Behavior of gene caused by administration of chemical substance, Gene No. 813 [2] | Behavior of gene caused by administration of chemical substance, Gene No. 2494 [2] | Behavior of gene caused by administration of chemical substance, Gene No. 2546 [2] | Behavior of gene caused by administration of chemical substance, Gene No. 3776 [2] | Behavior of gene caused by administration of chemical substance, Gene No. 3929 [2] | Behavior of gene caused by administration of chemical substance, Gene No. 1119 [2] | Behavior of gene caused by administration of chemical substance, Gene No. 6742 [2] | Behavior of gene caused by administration of chemical substance, Gene No. 5634 [2]
M+: Mutagenicity by Ames test [1]
Cr−: Liver carcinogenicity (liver)
C+: Carcinogenicity (rodent)

O=C(O)C(Cl)(Cl)Cl [TS051, Trichloroacetic acid]
C+: Carcinogenicity (rodent)
Cr−: Liver carcinogenicity (liver)
−: Behavior of gene caused by administration of chemical substance, Gene No. 4846 [2] | Behavior of gene caused by administration of chemical substance, Gene No. 2026 [2] | Behavior of gene caused by administration of chemical substance, Gene No. 4218 [2] | Behavior of gene caused by administration of chemical substance, Gene No. 6182 [2] | Behavior of gene caused by administration of chemical substance, Gene No. 5600 [2] | Behavior of gene caused by administration of chemical substance, Gene No. 1494 [2] | Behavior of gene caused by administration of chemical substance, Gene No. 2045 [2] | Behavior of gene caused by administration of chemical substance, Gene No. 2203 [2] | Behavior of gene caused by administration of chemical substance, Gene No. 533 [2] | Behavior of gene caused by administration of chemical substance, Gene No. 1163 [2] | Behavior of gene caused by administration of chemical substance, Gene No. 1334 [2] | Behavior of gene caused by administration of chemical substance, Gene No. 6620 [2] | Behavior of gene caused by administration of chemical substance, Gene No. 6303 [2] | Behavior of gene caused by administration of chemical substance, Gene No. 5878 [2] | Behavior of gene caused by administration of chemical substance, Gene No. 1131 [2] | Behavior of gene caused by administration of chemical substance, Gene No. 1562 [2] | Behavior of gene caused by administration of chemical substance, Gene No. 1741 [2] | Behavior of gene caused by administration of chemical substance, Gene No. 893 [2] | Behavior of gene caused by administration of chemical substance, Gene No. 6026 [2] | Behavior of gene caused by administration of chemical substance, Gene No. 154 [2] | Behavior of gene caused by administration of chemical substance, Gene No. 1993 [2] | Behavior of gene caused by administration of chemical substance, Gene No. 813 [2] | Behavior of gene caused by administration of chemical substance, Gene No. 2494 [2] | Behavior of gene caused by administration of chemical substance, Gene No. 2546 [2] | Behavior of gene caused by administration of chemical substance, Gene No. 3776 [2] | Behavior of gene caused by administration of chemical substance, Gene No. 3929 [2] | Behavior of gene caused by administration of chemical substance, Gene No. 1119 [2] | Behavior of gene caused by administration of chemical substance, Gene No. 6742 [2] | Behavior of gene caused by administration of chemical substance, Gene No. 5634 [2]
M−: Mutagenicity by Ames test [1]
+: Behavior of gene caused by administration of chemical substance, Gene No. 725 [2] | Behavior of gene caused by administration of chemical substance, Gene No. 4973 [2] | Behavior of gene caused by administration of chemical substance, Gene No. 4095 [2] | Behavior of gene caused by administration of chemical substance, Gene No. 5726 [2]
